Series [1] deals with HBV. Put plainly: Determination of HBV DNA from the supernatants of HepAD38 cells (anti-HBV activity). The series is classed as cell-based, hepatitis B virus. Particulars: HBV DNA in HepAD38 supernatant at day 6, read-out: Cell Activity (EC50). The method in brief:
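HepAD38 cells (60,000/well) were treated with half-log compound dilutions in tetracycline-free medium to induce HBV production. On day 6, HBV DNA was purified from filtered supernatant and quantified by real-time PCR against plasmid standards. EC50 values came from non-linear regression of relative copy numbers, typically from three experiments in triplicate.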

Series [2] deals with HepAD38 cells. Put plainly: Cell viability assay (AlamarBlue) in HepAD38 cells. The conditions noted are these: HepAD38 cells in the presence of 0.3 μg/ml tetracycline, six days incubation. (Resazurin is reduced to fluorescent resorufin, in cell work by metabolically active cells.)
The target in series [3] is HBV core protein (UniProt P03146). The series is classed as biochemical. An outline of the steps:
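Fluorescence-quenching assembly assay using E. coli-expressed core protein 1–149 plus Cys150, labelled with BODIPY-FL maleimide, at 1.0–2.0 μM in 50 mM HEPES pH 7.5, 0.5% DMSO. Assembly started with NaCl to […]; fluorescence (ex 477/em 525 nm) read after 6 min. EC50 by non-linear regression, 8-point 0.5-log dilutions.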

The mark [4] stands for this setting: BODIPY-FL labelled core protein, assembly started with NaCl, read after 6 min; read-out: Assembly Activity (IC50).
[5] abbreviates: read-out: Assembly Activity (IC50); BODIPY-FL labelled core protein, assembly started with NaCl, read after 6 min.

Where two headings read alike, the source gives them in different places. Some results are limits rather than exact numbers.

Usually EC50 stands for the midpoint of the concentration-response curve. As a reminder, the CC50 is the concentration giving 50% cytotoxicity. The term IC50 denotes the point on the concentration scale where inhibition reaches its midpoint.

Chain of HBV core protein (P03146 whole entry, looked up): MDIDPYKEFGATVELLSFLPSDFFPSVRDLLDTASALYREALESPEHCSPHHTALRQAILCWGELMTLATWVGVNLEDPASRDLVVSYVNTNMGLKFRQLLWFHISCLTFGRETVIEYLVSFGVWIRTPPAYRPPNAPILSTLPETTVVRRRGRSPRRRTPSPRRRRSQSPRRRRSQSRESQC

On to `CCc1cc(F)cc2[nH]c(C(=O)N3CCc4nc(N[C@H]5C[C@H](O)C5)sc4C3)cc12` [Example 376, (1r,3r)-3-{[5-(4-ethyl-6-fluoro-1H-indole-2-carbonyl)-4H,5H,6H,7H-[1,3]thiazolo[5,4-c]pyridin-2-yl]amino}cyclobutan-1-ol], for which the EC50 in series [1] is less than 1 µM. Besides, the CC50 in series [2] was greater than 10 µM.

Turning to `O=C(Nc1nc2c(s1)CN(C(=O)c1cc3ccccc3[nH]1)CC2)C1[C@H]2CNC[C@@H]12` (stereo partly drawn) [Example 359, (1R,5S,6R)—N-[5-(1H-indole-2-carbonyl)-4H,5H,6H,7H-[1,3]thiazolo[5,4-c]pyridin-2-yl]-3-azabicyclo[3.1.0]hexane-6-carboxamide], the EC50 in series [1] is less than 1 µM. The IC50 in series [3] (setting [4]) was less than 5 µM. Moreover, the CC50 in series [2] was greater than 10 µM.

With `O=C(c1cc2c(F)c(F)ccc2[nH]1)N1CCc2nc(N[C@H]3CC[C@@H](O)CC3)sc2C1` [Example 395, (1s,4s)-4-{[5-(4,5-difluoro-1H-indole-2-carbonyl)-4H,5H,6H,7H-[1,3]thiazolo[5,4-c]pyridin-2-yl]amino}cyclohexan-1-ol], in series [1], the EC50 is less than 1 µM. Also, in series [3] (setting [4]), the IC50 is less than 5 µM. Besides, in series [2], the CC50 was greater than 10 µM.

As to `O=C(c1cc2ccccc2[nH]1)N1CCc2nc(N[C@H]3C[C@H](O)C3)sc2C1` [Example 397, (1r,3r)-3-{[5-(1H-indole-2-carbonyl)-4H,5H,6H,7H-[1,3]thiazolo[5,4-c]pyridin-2-yl]amino}cyclobutan-1-ol], the EC50 in series [1] is less than 1 µM. Besides, the IC50 in series [3] (setting [4]) is less than 5 µM. In series [2], the CC50 was greater than 10 µM.

For `Cc1cc(F)cc2[nH]c(C(=O)N3CCc4nc(N[C@H]5C[C@H](O)C5)sc4C3)cc12` [Example 379, (1r,3r)-3-{[5-(6-fluoro-4-methyl-1H-indole-2-carbonyl)-4H,5H,6H,7H-[1,3]thiazolo[5,4-c]pyridin-2-yl]amino}cyclobutan-1-ol], in series [1], the EC50 is less than 1 µM. Moreover, in series [2], the CC50 was greater than 10 µM.

Consider `O=C(c1cc2c(F)cc(F)cc2[nH]1)N1CCc2nc(N[C@H]3C[C@H](O)C3)sc2C1` [Example 378, (1r,3r)-3-{[5-(4,6-difluoro-1H-indole-2-carbonyl)-4H,5H,6H,7H-[1,3]thiazolo[5,4-c]pyridin-2-yl]amino}cyclobutan-1-ol], for which, in series [1], the EC50 was less than 1 µM. In series [2], the CC50 is greater than 10 µM.

On to `O=C(c1cc2ccccc2[nH]1)N1CCc2nc(N[C@H]3C[C@@H](O)C3)sc2C1` [Example 388, (1s,3s)-3-{[5-(1H-indole-2-carbonyl)-4H,5H,6H,7H-[1,3]thiazolo[5,4-c]pyridin-2-yl]amino}cyclobutan-1-ol], for which the EC50 in series [1] is less than 1 µM. In addition, in series [2], the CC50 was greater than 10 µM.

Take `CCc1cccc2[nH]c(C(=O)N3CCc4nc(N[C@H]5C[C@H](O)C5)sc4C3)cc12` [Example 380, (1r,3r)-3-{[5-(4-ethyl-1H-indole-2-carbonyl)-4H,5H,6H,7H-[1,3]thiazolo[5,4-c]pyridin-2-yl]amino}cyclobutan-1-ol]: in series [1], the EC50 was less than 1 µM. For the same compound, the CC50 in series [2] was greater than 10 µM.

For `O=C(c1cc2c(F)c(F)ccc2[nH]1)N1CCc2nc(N[C@H]3C[C@H](O)C3)sc2C1` [Example 377, (1r,3r)-3-{[5-(4,5-difluoro-1H-indole-2-carbonyl)-4H,5H,6H,7H-[1,3]thiazolo[5,4-c]pyridin-2-yl]amino}cyclobutan-1-ol], the EC50 in series [1] is less than 1 µM. For the same compound, the CC50 in series [2] is greater than 10 µM.

On to “tert-butyl 4-{[5-(1H-indole-2-carbonyl)-4H,5H,6H,7H-[1,3]thiazolo[5,4-c]pyridin-2-yl]carbamoyl}piperidine-1-carboxylate [Example 384]”, for which the 50% effective concentration (EC50) in series [1] was less than 1 µM. The CC50 in series [2] is greater than 10 µM.

`O=C(Nc1nc2c(s1)CN(C(=O)c1cc3ccccc3[nH]1)CC2)C1[C@H]2COC[C@@H]12` (stereo partly drawn) [Example 361, (1R,5S,6S)—N-[5-(1H-indole-2-carbonyl)-4H,5H,6H,7H-[1,3]thiazolo[5,4-c]pyridin-2-yl]-3-oxabicyclo[3.1.0]hexane-6-carboxamide]: the EC50 in series [1] was less than 1 µM. Moreover, the CC50 in series [2] was greater than 10 µM.

As to `O=C(c1cc2c(Cl)cccc2[nH]1)N1CCc2nc(N[C@H]3C[C@H](O)C3)sc2C1` [Example 381, (1r,3r)-3-{[5-(4-chloro-1H-indole-2-carbonyl)-4H,5H,6H,7H-[1,3]thiazolo[5,4-c]pyridin-2-yl]amino}cyclobutan-1-ol], the EC50 in series [1] was less than 1 µM. Further, the CC50 in series [2] is greater than 10 µM.

Consider “N-[5-(1H-indole-2-carbonyl)-4H,5H,6H,7H-[1,3]thiazolo[5,4-c]pyridin-2-yl]piperidine-4-carboxamide hydrochloride [Example 385]”, for which the EC50 in series [1] is less than 1 µM. The CC50 in series [2] is greater than 10 µM.

On to “tert-butyl 3-{[5-(1H-indole-2-carbonyl)-4H,5H,6H,7H-[1,3]thiazolo[5,4-c]pyridin-2-yl]carbamoyl}azetidine-1-carboxylate [Example 387]”, for which the EC50 in series [1] was less than 1 µM. In addition, the CC50 in series [2] was greater than 10 µM.

Consider `NCCNc1nc2c(s1)CN(C(=O)c1cc3ccccc3[nH]1)CC2` [Example 179, N1-[5-(1H-indole-2-carbonyl)-4H,5H,6H,7H-[1,3]thiazolo[5,4-c]pyridin-2-yl]ethane-1,2-diamine], for which the EC50 in series [1] (Hepatitis B virus, 144 h) is 1 to 10 µM. In series [3] (setting [5]), the IC50 fell in the range of 5 to 10 µM.

Take `O=C(c1cc2c(F)c(F)ccc2[nH]1)N1CCc2nc(NCC3CCOC3)sc2C1` (stereo not drawn) [Example 112, 5-(4,5-difluoro-1H-indole-2-carbonyl)-N-[(oxolan-3-yl)methyl]-4H,5H,6H,7H-[1,3]thiazolo[5,4-c]pyridin-2-amine]: in series [1] (Hepatitis B virus, 144 h), the EC50 was less than 1 µM. In series [3] (setting [5]), the IC50 is less than 5 µM.

Consider `O=C(c1cc2ccccc2[nH]1)N1CCc2nc(NCC3CNCCO3)sc2C1` (stereo not drawn) [Example 260, 5-(1H-indole-2-carbonyl)-N—[(morpholin-2-yl)methyl]-4H,5H,6H,7H-[1,3]thiazolo[5,4-c]pyridin-2-amine], for which the EC50 in series [1] (Hepatitis B virus, 144 h) lay in the range of 1 to 10 µM. The IC50 in series [3] (setting [5]) was less than 5 µM.

For the compound `COC1(CNc2nc3c(s2)CN(C(=O)c2cc4ccccc4[nH]2)CC3)CCC1` [Example 414, 5-(1H-indole-2-carbonyl)-N-[(1-methoxycyclobutyl)methyl]-4H,5H,6H,7H-[1,3]thiazolo[5,4-c]pyridin-2-amine], in series [1] (Hepatitis B virus, 144 h), the EC50 was less than 1 µM. Also, the IC50 in series [3] (setting [5]) is less than 5 µM.

Regarding `O=C(c1cc2ccccc2[nH]1)N1CCc2nc(CNCC3CCOC3)sc2C1` (stereo not drawn) [Example 1, {[5-(1H-indole-2-carbonyl)-4H,5H,6H,7H-[1,3]thiazolo[5,4-c]pyridin-2-yl]methyl}[(oxolan-3-yl)methyl]amine], the EC50 in series [1] (Hepatitis B virus, 144 h) was in the range of 1 to 10 µM. For the same compound, the IC50 in series [3] (setting [5]) was less than 100 µM.

With `O=C(c1cc2c(C(F)F)cccc2[nH]1)N1CCc2nc(NCC3(O)CCC3)sc2C1` [Example 408, 1-[({5-[4-(difluoromethyl)-1H-indole-2-carbonyl]-4H,5H,6H,7H-[1,3]thiazolo[5,4-c]pyridin-2-yl}amino)methyl]cyclobutan-1-ol], the EC50 in series [1] (Hepatitis B virus, 144 h) was less than 1 µM. Further, the IC50 in series [3] (setting [5]) is less than 5 µM.

For `CC(C)(C)OC(=O)N1CCC(O)(CNc2nc3c(s2)CN(C(=O)c2cc4ccccc4[nH]2)CC3)CC1` [Example 219, tert-butyl 4-hydroxy-4-({[5-(1H-indole-2-carbonyl)-4H,5H,6H,7H-[1,3]thiazolo[5,4-c]pyridin-2-yl]amino}methyl)piperidine-1-carboxylate], in series [1] (Hepatitis B virus, 144 h), the EC50 was less than 1 µM. Also, the IC50 in series [3] (setting [5]) fell in the range of 5 to 10 µM.

Regarding `N#Cc1cccc2[nH]c(C(=O)N3CCc4nc(NCC5CCOC5)sc4C3)cc12` (stereo not drawn) [Example 104, 5-(4-cyano-1H-indole-2-carbonyl)-N-[(oxolan-3-yl)methyl]-4H,5H,6H,7H-[1,3]thiazolo[5,4-c]pyridin-2-amine], the EC50 in series [1] (Hepatitis B virus, 144 h) lay within 1 to 10 µM. For the same compound, the IC50 in series [3] (setting [5]) was 5 to 10 µM.

Regarding `Cc1cccc2[nH]c(C(=O)N3CCc4nc(NCC5CCOC5)sc4C3)cc12` (stereo not drawn) [Example 124, 5-(4-methyl-1H-indole-2-carbonyl)-N-[(oxolan-3-yl)methyl]-4H,5H,6H,7H-[1,3]thiazolo[5,4-c]pyridin-2-amine], the concentration giving a half-maximal response (EC50) in series [1] (Hepatitis B virus, 144 h) is less than 1 µM. For the same compound, the IC50 in series [3] (setting [5]) is less than 5 µM.

In the case of `O=C(Nc1nc2c(s1)CN(C(=O)c1cc3ccc(Cl)cc3[nH]1)CC2)C1CCOCC1` [Example 318, N-[5-(6-chloro-1H-indole-2-carbonyl)-4H,5H,6H,7H-[1,3]thiazolo[5,4-c]pyridin-2-yl]oxane-4-carboxamide], the EC50 in series [1] (Hepatitis B virus, 144 h) was less than 1 µM. Besides, the half-maximal inhibitory concentration (IC50) in series [3] (setting [5]) was less than 5 µM.

As to `Nc1nc2c(s1)CN(C(=O)c1cc3c(F)cc(Br)cc3[nH]1)CC2` [Example 143, 5-(6-bromo-4-fluoro-1H-indole-2-carbonyl)-4H,5H,6H,7H-[1,3]thiazolo[5,4-c]pyridin-2-amine], the 50% effective concentration (EC50) in series [1] (Hepatitis B virus, 144 h) is less than 1 µM. For the same compound, in series [3] (setting [5]), the IC50 was less than 5 µM.

For `Nc1nc2c(s1)CN(C(=O)c1cc3c(F)cccc3[nH]1)CC2` [Example 195, 5-(4-fluoro-1H-indole-2-carbonyl)-4H,5H,6H,7H-[1,3]thiazolo[5,4-c]pyridin-2-amine], the EC50 in series [1] (Hepatitis B virus, 144 h) lay within 1 to 10 µM. Further, the IC50 in series [3] (setting [5]) fell in the range of 5 to 10 µM.

Regarding `Nc1nc2c(s1)CN(C(=O)c1cc3cccc(Cl)c3[nH]1)CC2` [Example 154, 5-(7-chloro-1H-indole-2-carbonyl)-4H,5H,6H,7H-[1,3]thiazolo[5,4-c]pyridin-2-amine], in series [1] (Hepatitis B virus, 144 h), the EC50 is less than 1 µM. Besides, the IC50 in series [3] (setting [5]) is less than 5 µM.
